Consider one molecule from patent US11273124B2, “Antifungal nanoparticles for targeted treatment of fungal infections” (priority 2019, dated 2022).

In one data set the test system is Candida parapsilosis. The conditions noted are these: cited from earlier work.
Data set [1] relates to Candida albicans 10231 biofilms. In words: Pre-formed biofilm treatment assay (microscopy, CFU, metabolic activity). It counts as cell-based. The following applies: liposomes at 1.25 mg/mL or equivalent free drug; twenty-four hours. The source says:
(a) A set of representative differential interference contrast microscopy images of Candida albicans 10231 biofilms after twenty-four hours of treatment with 1×, 5×, and 10× anidulafungin loaded liposomes or equivalent free drug. (b) A bar graph showing Candida albicans 10231 biofilm colony-forming units (CFU) twenty-four hours after treatment with 1×, 5×, and 10× anidulafungin loaded liposomes or equivalent free drug (**p<0.01, unpaired two-tailed t-test, n=4). (c) A bar graph showing relative metabolic activity of Candida albicans 10231 biofilm cells twenty-four hours after treatment with 1×, 5×, and 10× anidulafungin loaded liposomes or equivalent free drug (*p<0.05, **p<0.01, ***p<0.001, ****p<0.0001, one-way ANOVA with Tukey's post hoc analysis, n=4). […] of untreated cells are shown. Negative controls lacking fungi were included in each study.
The inventors compared anidulafungin-loaded liposomes with AmBisome®, a commercially-available liposomal amphotericin B, for activity against Candida albicans 10231 biofilms. AmBisome® localizes to the fungal cell wall. See, Adler-Moore & Proffitt, Journal of Antimicrobial Chemotherapy, 49(1), 21-30 (2002) and Walker et al., mBio, 9(1), e02383-17 (2018). The anidulafungin-loaded liposomes performed as AmBisome®, reducing fungal burden by five-fold after only twenty-four hours. See, FIG. 4. […]

The next data set relates to Candida albicans. The following applies: cited from earlier work.
The next data set deals with human cells. The conditions noted are these: compared to many other antifungals; cited from earlier work.
The conditions of data set [2]: cited from earlier work.

Molecules are shown by their SMILES. Converted amounts (≈) assume the structure as drawn. “Also recorded” adds a separate entry of the source. Numbered stars: 1 amine (or outer) side, 2 acyl side, 3 side chain; on linkers, the order of the positions; unused ones are H or OH. Bridge positions count the residues as written; N and C are the ends. Square brackets hold non-standard residues; d marks the D form. Peptide text beside a SMILES is read from it. * marks the point of attachment. pTerphenylCO(4''-OnC5H11) = CCCCCOc1ccc(-c2ccc(-c3ccc(C(=O)*)cc3)cc2)cc1; Orn(4R-OH,5R-OH) = O=C([C@H](C[C@@H](O)[C@@H](O)N[*:3])N[*:1])[*:2]; hTyr(3S-OH,4S-OH) = N[C@H](C(=O)O)[C@H](O)[C@@H](O)c1ccc(O)cc1; Pro(3S-OH,4S-Me) = C[C@H]1CN[C@H](C(=O)O)[C@H]1O; Hyp = O=C(O)[C@@H]1C[C@@H](O)CN1

Take `CCCCCOc1ccc(-c2ccc(-c3ccc(C(=O)N[C@H]4C[C@@H](O)[C@@H](O)NC(=O)[C@@H]5[C@@H](O)[C@@H](C)CN5C(=O)[C@H]([C@@H](C)O)NC(=O)[C@H]([C@H](O)[C@@H](O)c5ccc(O)cc5)NC(=O)[C@@H]5C[C@@H](O)CN5C(=O)[C@H]([C@@H](C)O)NC4=O)cc3)cc2)cc1` [Anidulafungin, 1-[(4R,5R) 4,5-dihydroxy-N2-[[4″-(pentyloxy)[1,1′:4′,1″-terphenyl]-4-yl]carbonyl]-L-ornithine] echinocandin B] ({pTerphenylCO(4''-OnC5H11)}-[Orn(4R-OH,5R-OH)]T[Hyp][hTyr(3S-OH,4S-OH)]T[Pro(3S-OH,4S-Me)]; lactam 1-C): the “minimum inhibitory concentration (MIC)” value was 4 µg/mL (≈ 3.51 µM) in the data set with Candida parapsilosis and 0.25 µg/mL (≈ 0.219 µM) with Candida albicans. In addition, the “metabolic activity compared to untreated controls” value in data set [1] is given as “did not reduce metabolic activity”. Further, the “toxicity to human cells” value in the data set with human cells is given as “reduced toxicity to human cells”. Further, in data set [2] (ethanol), the solubility in ethanol entry is “slightly soluble”. In addition, the solubility in water result in data set [2] (water) is listed as “practically insoluble; also recorded: not freely soluble”.
